Results published in patent US20040229777A1, “Crystalline phases of a potent HCV inhibitor” (Boehringer Ingelheim International GmbH, priority 2003, published 2004).

Tests used:
[1] = Moisture adsorption/desorption isotherm (VTI SGA-100 moisture balance); format: physicochemical; conditions: 25° C.; adsorption 5 to 95% RH, desorption 95 to 5% RH; samples dried at 50° C. prior to analysis
Excerpt: It is clear from FIG. 3 that the moisture content of Type A varies depending on the relative humidity of its environment, up to a maximum water sorption level of about 3.7% by weight. […] It is clear from FIG. 7 that the moisture content of Type B varies depending on the relative humidity of its environment, up to a maximum water sorption level of about 4.5% by weight. Moisture adsorption/desorption data were collected on a VTI SGA-100 moisture balance system, available from VTI Corporation of Hialeah, Fla. For adsorption isotherms, an adsorption range of 5 to 95% relative humidity and a desorption range of 95 to 5% relative humidity in 5% relative humidity increments were used for analysis. The samples were dried at 50° C. prior to analysis. The analyses were conducted at 25° C. Equilibrium criteria used for the analysis were less than 0.001 percent change in 5 minutes with a maximum equilibration time of 1200 minutes if the weight criterion was not met.

[2] = XRPD analysis of the crystal phase under varied relative humidity and elevated temperature; format: physicochemical
Excerpt: This behavior is typical of channel hydrates, whereby water resides within the channels in the crystal lattice and can readily move in and out of the structure. Type A is therefore believed to be a type of channel hydrate. Type B is also a variable hydrate crystalline phase of Compound (1), i.e., the number of water molecules associated with each molecule of Compound (1) may vary. […] For this reason, it is preferable to maintain Type B at a modest RH level of about 20% to 40%. X-ray powder diffraction analyses were conducted on a Bruker AXS X-Ray Powder Diffractometer Model D8 Advance, available from Bruker AXS, Inc. of Madison, Wis., using CuKα radiation. The instrument is equipped with a long fine focus x-ray tube. The tube power was set to 40 kV and 30 mA. The instrument was operated in parallel beam mode with a Gobel Mirror, using a 0.6 mm exit slit, a 0.40 soller slit, a LiF flat crystal diffracted beam monochromator and a NaI scintillation detector. A detector scan was run using a tube angle of 1° 2θ. Step scans were run from 2 to 35° 2θ, at 0.050 per step, 4 sec per step. A reference quartz standard was used to check instrument alignment. Samples were prepared for analysis by filing a zero background quartz holder.

Row | maximum water sorption level [1] | SMILES | crystal structure behaviour under varied humidity and temperature ([2]; dry nitrogen up to ˜85% RH and elevated temperature (up to 160° C.)) | crystal structure behaviour under varied humidity and temperature ([2]; low relative humidity (e.g., dry nitrogen) and/or elevated temperature (˜90° C.))
1 | about 3.7 % by weight | COc1ccc2c(O[C@@H]3C[C@H]4C(=O)N[C@]5(C(=O)O)C[C@H]5/C=C\CCCCC[C@H](NC(=O)OC5CCCC5)C(=O)N4C3)cc(-c3csc(NC(C)C)n3)nc2c1 [Type A] | crystal lattice expands at higher RH levels while maintaining its overall structure | 
2 | about 4.5 % by weight | COc1ccc2c(O[C@@H]3C[C@H]4C(=O)N[C@]5(C(=O)O)C[C@H]5/C=C\CCCCC[C@H](NC(=O)OC5CCCC5)C(=O)N4C3)cc(-c3csc(NC(C)C)n3)nc2c1 [Type B] |  | readily loses water resulting in a partial collapse of its crystal structure
